Measured values taken from US4661502A (priority 1983, dated 1987).

Tests used:
[1] = test system: Hypercholesterolemic Rats; design: species or system Wistar rats; settings: rat, in vivo
male Wistar rats = settings: rat, in vivo

CN(C)C(=O)Oc1cccc([N+](C)(C)C)c1 [Neostigmine bromide]
LDL-cholesterol [1]: 76.6 ± 10.7 mg %
Total cholesterol [1]: 131.2 ± 11.8 mg %
Acute toxicity: state of the rats after administration (male Wistar rats): all the rats were dead
